The values that follow come from publication PMC5563081, “Modulating Protein-Protein Interactions of the Mitotic Polo-like Kinases to Target Mutant KRAS” (Cell Chemical Biology, 2017).

The subject of one assay is HeLa cells. In words: Mitotic index assay in HeLa cells. The format is cell-based, human. The note with it: for EC50: Homo sapiens, HeLa, Figure 5A, read-out: MI EC50 (cellular assay for mitotic arrest). The procedure: Cells were plated at 10 000/well in 96-well plates and incubated overnight. The following day compound stocks in DMSO were diluted in medium then added to cells with a maximum final DMSO concentration on cells of 0.2%. […] Cells were permeabilised with 0.1% Triton X-100 then incubated with anti-phospho-histone H3 (Ser10) antibody (Abcam ab5176). The cells were washed with PBS then incubated with AlexaFluor 488 labelled goat anti-rabbit IgG (Invitrogen A11034) in the presence of 4ug/ml Hoechst 33342 (Invitrogen H3570). Cells were washed in PBS then imaged on an Arrayscan VTi HCS instrument (Thermo Fisher) using the Target Activation V4 Bioapplication. A user-defined threshold was applied to identify mitotic cells based on the intensity of phospho-histone H3 staining.

In assay [1] the test system is HCT116 BI 2536-Res. Clones. Put plainly: Viability of BI 2536-resistant HCT116 clones. Type of assay: cell-based, human. The note with it: Homo sapiens, HCT-116; BI2536-Res. (Mean), 72 h; read-out: GI50. The procedure: (§1) Viability is represented as percentage survival normalised to DMSO control. […] PCR reactions were carried out using Amplitaq Gold polymerase (Applied Biosystems N8080241) with a 25-cycle programme. […] Prepared samples were submitted for next generation sequencing using MiSeq Nano run with Nextera XT library preparation. Sequencing and subsequent bioinformatics were performed by Cambridge Genomic Services (University Of Cambridge).

The next assay has as its system HCT116 KRAS G13D cells. In words: Development of drug resistance under continuous treatment. Type of assay: cell-based, human. The note with it: continuous treatment at 5x GI50. The procedure:
HCT116 wild-type cells (Horizon Discovery Ltd.) cultured in McCoy's 5A (Life Technologies #26600) medium supplemented with 10% Foetal Calf Serum (Life Technologies #10270) were treated on three occasions with titrations of the PLK1 ATP-competitive inhibitor BI 2536 (Selleckchem #S1109) or Poloppin in order to determine the 2.5x GI50, 3x GI50 and 5x GI50 values for each compound required to initiate the development of resistance. Cells were subsequently treated with 2.5x GI50, 3x GI50 and 5x GI50 concentrations of either compound, changing media and compound every three to four days until resistant colonies emerged or no viable cells remained. Single cell clones were isolated from cells resistant to 5x GI50 BI 2536. Equivalent experiments using 3x GI50 or 2.5x GI50 doses of Poloppin or BI2536 yielded identical results (data not shown). BI 2536-resistant clones (HCT116 BI 2536-Res. Clones) were treated with BI2536 or Poloppin, alongside drug-sensitive parental HCT116 cells (HCT116 wt), and viability was assessed after 72 h. Viability is represented as percentage survival normalised to DMSO control. […]

The subject of the next assay is HCT116 wt. In words: Viability of drug-sensitive parental HCT116 cells. Type of assay: cell-based. The note with it: Homo sapiens, HCT-116, 72 h. The protocol: as §1
Assay [2] addresses T1, NanoLuc-PLK1 fusion protein (Homo sapiens, UniProt P53350).
T1 construct: NanoLuc fused to the N-termini of full-length human PLK1, PLK2, PLK3, PLK4 or p38α MAPK; expressed in transfected cells; host or cells: HeLa, transient, digitonin-permeabilised
In words: NanoLuc thermal shift assay. The format is cell-based. The note with it: compound at 100 μM. The protocol: (§2) HeLa cells were transfected with plasmids encoding NanoLuc fused to the N-termini of full-length human PLK1, PLK2, PLK3, PLK4 or p38α MAPK. Twenty-four h after transfection, the thermal stability of the fusion proteins was tested using a modified version of the assay protocol supplied by Promega. Briefly, cells were harvested by tyrpsinisation and centrifugation, counted, and resuspended to 200,000 cells/ml in 3mls of serum-free OptiMEM media. Cells were then permeabilised using with 50ug/ml digitonin in DMSO for 5 min and incubated with test compounds at 100uM, plus protease inhibitor cocktail (Promega G6521), in a final concentration of 5% DMSO for 1 h at 37°C. After incubation, 100 μl/well of cells were aliquoted into a 96-well, thin-walled PCR plate and then heated for 3 minutes using a pre-warmed MJ Tetrad DNA Engine set to run a temperature gradient of 42 to 66°C. The plates were then cooled to room temperature for 10 min, and then 80μl of each sample was transferred to a white-walled 96-well Nunc plate before NanoBRET™ NanoGlo Substrate diluted in Opti-MEM was added. NanoLuc enzyme activity was read out within 10 min using a BMG Clariostar plate reader.
(§3) Nanoluciferase enzyme activity of PLK1- or PLK4-Nanoluc fusion protein was analysed using GraphPad Prism. Data were normalised as follows: (treatment A RLU value at X°C temp/treatment A RLU value at 42°C temp) x 100. Using the Boltzmann sigmoidal equation, a curve was then fitted to the normalised data. From this non-linear fit, a V50 value was generated, which in this context represents the aggregation onset temperature (Tagg), at which 50% of the PLK1- or PLK4-Nanoluc fusion protein has aggregated.

Assay [3] concerns the target T2, NanoLuc-PLK4 fusion protein (Homo sapiens, UniProt O00444).
T2 construct: NanoLuc fused to the N-termini of full-length human PLK1, PLK2, PLK3, PLK4 or p38α MAPK; expressed in transfected cells; host or cells: HeLa, transient, digitonin-permeabilised
T2 sequence (O00444 1-970): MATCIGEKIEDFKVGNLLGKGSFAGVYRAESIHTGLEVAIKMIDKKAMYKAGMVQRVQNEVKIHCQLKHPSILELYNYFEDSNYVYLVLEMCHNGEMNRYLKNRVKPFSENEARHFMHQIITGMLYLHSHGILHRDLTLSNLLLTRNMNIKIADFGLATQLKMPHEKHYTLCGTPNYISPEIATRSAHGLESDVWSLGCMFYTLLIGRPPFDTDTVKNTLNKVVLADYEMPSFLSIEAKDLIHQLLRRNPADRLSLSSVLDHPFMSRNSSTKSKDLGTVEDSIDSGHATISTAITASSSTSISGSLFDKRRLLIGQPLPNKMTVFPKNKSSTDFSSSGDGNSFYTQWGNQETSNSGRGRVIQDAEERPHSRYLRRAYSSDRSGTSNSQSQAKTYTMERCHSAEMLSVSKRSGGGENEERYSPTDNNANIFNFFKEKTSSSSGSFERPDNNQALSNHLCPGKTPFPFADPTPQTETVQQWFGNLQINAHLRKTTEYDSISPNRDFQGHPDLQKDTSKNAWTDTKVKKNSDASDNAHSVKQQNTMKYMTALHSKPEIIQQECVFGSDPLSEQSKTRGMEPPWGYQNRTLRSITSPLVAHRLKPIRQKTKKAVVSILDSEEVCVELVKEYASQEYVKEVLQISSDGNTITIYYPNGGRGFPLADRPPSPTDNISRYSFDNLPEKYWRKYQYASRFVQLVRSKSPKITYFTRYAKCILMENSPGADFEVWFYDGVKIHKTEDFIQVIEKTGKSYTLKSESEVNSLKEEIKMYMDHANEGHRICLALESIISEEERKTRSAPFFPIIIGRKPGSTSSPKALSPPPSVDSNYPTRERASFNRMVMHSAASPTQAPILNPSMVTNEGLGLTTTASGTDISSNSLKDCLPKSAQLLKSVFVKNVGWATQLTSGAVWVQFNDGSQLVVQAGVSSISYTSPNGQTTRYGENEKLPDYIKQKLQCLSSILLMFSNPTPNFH
In words: NanoLuc thermal shift assay. The format is cell-based. The note with it: compound at 100 μM. The procedure:
as §2, §3

For another assay, the system named is Panc-1. In words: Cell viability (SRB), Panc-1. The note with it: Panc-1, c-MET inhibitor alone, SRB 72 h, Figure S5C, read-out: EC50, % survival. The format is cell-based, human. The protocol: SW48 Parental, SW48 G12D, Panc-1, HPAF-II, Panc 02.03 and Panc 05.04 cell lines were seeded overnight at 5000 cells per well in a 96 well plate in recommended media (ATCC). Compounds were added the following day and viability was measured at 72h using the sulforhodamine B (SRB) colorimetric assay as follows. Cells were fixed by replacing media with 1% v/v Trichloroacetic Acid (TCA) (Sigma-Aldrich) at 4°C and incubated for 1h also at 4°C. Wells were washed thoroughly with copious amounts of deionised water before staining with Sulforhodamine B (SRB) (Sigma-Aldrich) solution (0.057% w/v in 1% v/v Acetic Acid (VWR)) for 30 min. Stain was aspirated and wells washed with several changes of 1% v/v Acetic Acid until unbound stain was removed, before air-drying. Bound stain was solubilized with 100μl / well 10mM Tris (pH 8.0) (Trizma Base (121.1) Sigma-Aldrich) with agitation for 10 min. Fluorescence intensity was recorded at Ex540nm / Em590nm using a BMG Pherastar Plus plate reader ([Vichai and Kirtikara, 2006]).
Pancreatic organoids were extracted and cultured as detailed above ([Boj et al., 2015]). In brief, pancreatic organoids were seeded at 600 cells per well in a 96 well plate and allowed to grow for 7 days with media replenishment on the 3rd day. Full-grown organoids were then treated with compounds for 72h and viability determined using CellTitre Glo 3D assay (Promega). For viability assays with c-MET siRNA, cells were reverse transfected in a 6 cm dish using Dharmafect 1 (GE Dharmacon) per manufacturer’s instructions. On the following day, cells were trypsinised and plated onto 96 well plates or 6 well plates. The 96 well plates were treated with a dose range of compounds or DMSO, and viability was determined via SRB colorimetric assay. Cells in the 6 well plates were collected at the end of experiment to corroborate knockdown of c-MET by Western blotting.
Cells were reverse-transfected with 50nM (SW48 parental, SW48 KRAS G12D and Panc-1) or 25nM (HeLa Flp-In T-REx parental cells) siRNA using Dharmafect (GE Dharmacon) as manufacturer’s recommendations. Where transfected cells were subsequently treated with compounds, the cells were allowed to settle overnight and then treated with compound at the indicated concentration the following day. Viability was assessed after 72 hrs, with the SRB colorimetric assay. Knockdown efficiencies were determined by Western blot or RT-qPCR. Oligos against the following target sequences were used. c-MET (Qiagen): […], […], […]. PLK1 (Qiagen): […]. PLK2 (SMARTpool; Dharmacon): ACACAGAAGGAGAACGAUA, CAUCAAUGAGGAUAGGAUA, CUGCCUAGUGUUACUGAUA, ACAAAGUCUACGCCGCAAA. PLK3 (SMARTpool; Dharmacon): GCGAGAAGAUCCUAAAUGA, GCAAGUGGGUUGACUACUC, GCACAUCCGUUGGCCAUCA, GACCUCAAGUUGGGAAAUU. PLK4 (Qiagen): […].

Assay [4] addresses T3, PLK1-PBD(345-603), Polo-box domain of human Polo-like kinase 1 (human, UniProt P53350 345-603).
T3 construct: Polo-like kinase 1 (PLK1), human, Polo-box domain, residues 345-603; also called PLK1 PBD (aa345-603); PBDaa345-603; source: E. coli C41, purified (GST-Sepharose column, cleaved on column with PreScission protease, gel chromatography)
Put plainly: fluorescence polarisation; competition format: TAMRA-labelled phosphopeptide 10 nM, PBD 84 nM (2.5 ng/ul), PBS pH 7.4 plus 0.03% tween; compound and PBD incubated together at 22 C for 1 hour before the peptide was added; same procedure for PLK2 PBD with its own peptide. The note with it: both partners purified.

Like-named read-outs stand apart in the source and are kept apart here.

What is called EC50 is the concentration needed to bring the measured effect to its halfway point. In general, GI50 refers to the concentration at which growth is held to half of that of the control.

T3 sequence (P53350 345-603): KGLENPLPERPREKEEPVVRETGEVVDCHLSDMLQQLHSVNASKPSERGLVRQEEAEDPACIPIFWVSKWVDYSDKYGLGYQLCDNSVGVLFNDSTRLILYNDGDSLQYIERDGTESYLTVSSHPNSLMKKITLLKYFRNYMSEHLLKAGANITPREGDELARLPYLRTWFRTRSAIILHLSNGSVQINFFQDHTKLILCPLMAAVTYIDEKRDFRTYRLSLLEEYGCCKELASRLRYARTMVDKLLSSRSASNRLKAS
T1 sequence (P53350 whole entry, the tested form may be a part): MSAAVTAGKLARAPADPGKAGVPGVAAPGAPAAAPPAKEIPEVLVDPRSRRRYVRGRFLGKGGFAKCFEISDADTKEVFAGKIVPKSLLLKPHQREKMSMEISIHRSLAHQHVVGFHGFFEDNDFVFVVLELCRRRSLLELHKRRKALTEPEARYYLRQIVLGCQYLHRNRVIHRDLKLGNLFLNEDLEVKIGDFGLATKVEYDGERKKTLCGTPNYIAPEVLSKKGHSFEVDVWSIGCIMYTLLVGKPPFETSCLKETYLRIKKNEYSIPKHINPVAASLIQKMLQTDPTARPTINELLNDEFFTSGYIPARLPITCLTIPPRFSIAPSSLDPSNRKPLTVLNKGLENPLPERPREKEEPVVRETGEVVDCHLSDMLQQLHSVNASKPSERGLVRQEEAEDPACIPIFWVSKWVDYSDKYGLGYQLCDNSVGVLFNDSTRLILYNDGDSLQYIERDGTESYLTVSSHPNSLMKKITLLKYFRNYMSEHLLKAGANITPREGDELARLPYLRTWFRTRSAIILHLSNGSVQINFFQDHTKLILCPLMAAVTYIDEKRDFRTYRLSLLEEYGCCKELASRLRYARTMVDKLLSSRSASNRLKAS

As to `CN(C)CCNC(=O)c1ccc(-c2ccc(-c3ccc(Br)cc3)n2-c2ccccc2C(F)(F)F)cc1` [compound 5], in the assay with HeLa cells, the EC50 is 360 nM. Same read-out and setting: as for `CN(C)CCNC(=O)c1cccc(-c2ccc(-c3ccc(Br)cc3)n2-c2ccccc2C(F)(F)F)c1` [compound 4], the figure is 580 nM.

Take `CC[C@@H]1C(=O)N(C)c2cnc(Nc3ccc(C(=O)NC4CCN(C)CC4)cc3OC)nc2N1C1CCCC1` [BI2536, reference compound]: the GI50 in assay [1] is 30.9 nM; with HCT116 wt it was 8.25 nM. The “acquisition of drug resistance” value in the assay with HCT116 KRAS G13D cells is “readily acquire resistance”. With `Cc1cc(Cl)ccc1-n1c(CCC(=O)N(C)C)ccc1-c1ccc(Br)cc1` [PB114], the “EC50, mitotic index assay” value in the assay with HeLa cells (HeLa cells treated for 16 hr, Figure 5B) is “inactive”. In addition, the “thermal stability of NanoLuc-PLK1” value in assay [2] is recorded as “less active”. In assay [3], the “thermal stability of NanoLuc-PLK4” value is “less active”. With `O=C1NC(=O)C(c2cn3c4c(cccc24)CCC3)C1c1c[nH]c2ccccc12` (centres unmarked) [Tivatinib], the concentration for a half-maximal effect (EC50) with Panc-1 was 1200 ± 1030 nM. With `COc1cc2c(Oc3ccc(NC(=O)C4(C(=O)Nc5ccc(F)cc5)CC4)cc3F)ccnc2cc1OCCCN1CCOCC1` [Foretinib], in the assay on Panc-1 (Homo sapiens), the EC50 turned out to be 2600 ± 1040 nM.

B1: TAMRA-labelled consensus PLK1 PBD binding phosphopeptide, 5-TAMRA-MAGPMQS(pThreonine)PLMGAKK-acid (peptide)
peptide: MAGPMQSTPLMGAKK
modifications: not fully specified; 5-TAMRA on the N-terminus; phosphothreonine (pThreonine) after MAGPMQS, residue 8 of the letters; C-terminal acid
notes: also called TAMRA-labeled substrate peptide
As for B1, the binding result in assay [4] was “binds”.
